Values quoted from earlier work as cited in US12569475B2, “Method for eradicating helicobacter pylori infection in patients regardless of body mass index” (RedHill Biopharma Ltd., priority 2020, dated 2026).
In brackets after ≈: the same amount, converted by molar mass. Where a name gives a salt, the structure may show the parent alone. Read-outs that look alike come from different tables or passages of the source.

Compound	solubility in methanol	solubility in water (water at 25° C.) [mg/mL]	solubility in chloroform (chloroform)	solubility in ethanol (ethanol)	solubility in water (water) [mg/mL]
COc1ccc2[nH]c([S+]([O-])Cc3ncc(C)c(OC)c3C)nc2c1 (racemic) [Omeprazole magnesium, 5-methoxy-2-[[(4-methoxy-3,5-dimethyl-2-pyridyl)methyl]sulfinyl]benzimidazole, (RS) magnesium salt (2:1)]	soluble	0.25			
CO[C@H]1/C=C/O[C@@]2(C)Oc3c(C)c(O)c4c(c3C2=O)C2=NC3(CCN(CC(C)C)CC3)NC2=C(NC(=O)/C(C)=C\C=C\[C@H](C)[C@H](O)[C@@H](C)[C@@H](O)[C@@H](C)[C@H](OC(C)=O)[C@@H]1C)C4=O [Rifabutin, (9S,12E,14S,15R,16S,17R,18R,19R,20S,21S,22E,24Z)-6-16,18,20-tetrahydroxy-1′-isobutyl-14-methoxy-7,9,15,17,19,21,25-heptamethylspiro [9,4-(epoxypentadeca[1,11,13]trienimino)-2H-furo[2′,3′:7,8]naphth[1,2-d]imidazole-2,4′-piperidine]-5,10,26-(3H,9H)-trione-16-acetate]	soluble		soluble	sparingly soluble	0.19 (≈ 224 µM)
